Earlier results in US8329231B2, “Method of preventing photo-aging with ashwagandha and Indian gooseberry” (Nutragenesis, LLC, priority 2008, dated 2012).

Details: values from the literature

For `O=C1O[C@H]([C@@H](O)CO)C(O)=C1O` [Vitamin C], the “HORAC (published, literature)” value is given as 0 units.
